In patent publication US11530197B2, “Analogs for the treatment of disease” (Insilico Medicine IP Limited, priority 2021, dated 2022):
Read-outs that look alike come from different tables or passages of the source.

Tests used:
[1] = molecular target: MAP4K4 (h) (Homo sapiens (Human), UniProt O95819); experiment: MAP4K4 Human STE Kinase Enzymatic Radiometric Assay; format: biochemical; conditions: ATP 200 μM; 40 min at room temperature;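 further: kinase activity remaining relative to the DMSO control, IC50 derived from sigmoidal variable-slope curve fits, no preincubation of compound with enzyme before ATP start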
Sequence of MAP4K4 (h) (O95819 whole entry): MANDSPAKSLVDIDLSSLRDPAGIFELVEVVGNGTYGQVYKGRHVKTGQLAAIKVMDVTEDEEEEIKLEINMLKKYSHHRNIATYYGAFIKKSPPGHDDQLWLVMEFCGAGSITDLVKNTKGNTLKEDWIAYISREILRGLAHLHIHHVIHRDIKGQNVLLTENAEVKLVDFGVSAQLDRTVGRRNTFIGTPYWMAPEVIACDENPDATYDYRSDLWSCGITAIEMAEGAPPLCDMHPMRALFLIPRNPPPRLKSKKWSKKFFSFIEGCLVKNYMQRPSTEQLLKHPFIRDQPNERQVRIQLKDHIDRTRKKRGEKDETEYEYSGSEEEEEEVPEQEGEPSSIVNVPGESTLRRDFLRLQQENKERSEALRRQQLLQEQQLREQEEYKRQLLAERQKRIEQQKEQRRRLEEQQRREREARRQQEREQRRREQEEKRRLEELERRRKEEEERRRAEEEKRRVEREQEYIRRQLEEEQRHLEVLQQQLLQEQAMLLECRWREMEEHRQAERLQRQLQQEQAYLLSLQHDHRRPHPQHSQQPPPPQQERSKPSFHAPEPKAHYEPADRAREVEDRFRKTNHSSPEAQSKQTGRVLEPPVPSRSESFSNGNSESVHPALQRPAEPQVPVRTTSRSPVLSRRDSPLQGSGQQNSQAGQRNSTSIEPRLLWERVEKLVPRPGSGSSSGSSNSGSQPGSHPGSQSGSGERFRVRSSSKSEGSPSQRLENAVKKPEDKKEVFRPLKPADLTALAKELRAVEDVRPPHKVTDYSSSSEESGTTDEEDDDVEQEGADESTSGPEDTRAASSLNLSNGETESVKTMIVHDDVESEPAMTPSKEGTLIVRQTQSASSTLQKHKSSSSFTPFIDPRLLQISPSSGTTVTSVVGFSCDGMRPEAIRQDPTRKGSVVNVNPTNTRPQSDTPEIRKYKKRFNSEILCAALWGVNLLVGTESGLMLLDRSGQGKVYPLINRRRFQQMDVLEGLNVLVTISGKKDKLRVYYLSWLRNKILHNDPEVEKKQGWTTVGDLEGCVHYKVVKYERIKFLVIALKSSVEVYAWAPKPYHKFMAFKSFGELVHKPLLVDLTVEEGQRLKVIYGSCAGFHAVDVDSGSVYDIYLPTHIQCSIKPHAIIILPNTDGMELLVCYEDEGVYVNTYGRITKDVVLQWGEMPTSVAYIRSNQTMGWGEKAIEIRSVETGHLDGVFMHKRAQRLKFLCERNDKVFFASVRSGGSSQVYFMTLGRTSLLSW
Description: (§1) The reaction is initiated by the addition of the Mg/ATP mix. After incubation for 40 minutes at room temperature, the reaction is stopped by the addition of phosphoric acid to a concentration of 0.5%.
INCUBATION: 40 min at Room temperature
COMPOUND DILUTION SCHEME: All compounds supplied were prepared to a working stock of 50× final assay concentration in 100% DMSO. Where appropriate, more concentrated stocks were diluted manually to 50× using 100% DMSO. Compounds supplied as powders were reconstituted to a 10 mM stock in 100% DMSO before further dilution to 50×.
ASSAY PROCEDURE: The required volume of the 50× stock of test compound was added to the assay before a reaction mix containing the enzyme and substrate was added. The reaction was initiated by the addition of ATP at the selected concentration. There was no pre-incubation of the compound with the enzyme/substrate mix prior to ATP addition.
Results are expressed as kinase activity remaining, as a percentage of the DMSO control. This is calculated using the following formula: Mean of Sample Counts−Mean of Blank Counts/Mean of Control Counts
(§2) For IC50 determinations, data are analyzed using XLFit version 5.3 (ID Business Solutions). Sigmoidal dose-response (variable slope) curves are fit based on the mean result for each test concentration using non-linear regression analysis. Where the top and/or bottom of the curve fall >10% out with 100 and 0, respectively, either or both of these limits may be constrained at 100 and 0, provided that the QC criterion on R2 is met.

[2] = Metabolic stability in human liver microsomes; format: in vitro ADME; conditions: LM Clint; 1 μM test compound, 0.5 mg protein/mL microsome, 37° C., up to 60 min;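 further: NADPH-supplemented human liver microsomes sampled at 0, 5, 10, 20, 30 and 60 min, parent compound quantified by LC-MS/MS, intrinsic clearance from first-order decay, no-cofactor incubation as control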
Description: Test Compound an Control Working Solution Preparation: Working solution: 5 μL of compound and control stock solution (10 mM in dimethyl sulfoxide (DMSO)) were diluted with 495 µL of acetonitrile (ACN) (intermediate solution concentration: 100 μM, 99% ACN).
Preparation Procedure: The appropriate amount of NADPH powder was weighed and diluted into a 10 mM MgCl2 solution (working solution concentration: 10 unit/mL; final concentration in reaction system: 1 unit/mL).
Preparation Procedure: The appropriate concentrations of microsome working solutions were prepared in 100 mM potassium phosphate buffer.
Stop Solution Preparation: Cold (4° C.) acetonitrile (ACN) containing 200 ng/mL tolbutamide and 200 ng/mL labetalol as internal standards (IS) was used as the stop solution.
Dilute liver microsomes to 0.56 mg/mL in 100 mM phosphate buffer.
Transfer 445 μL microsome working solutions (0.56 mg/mL) into pre-warmed ‘Incubation’ plates T60 and NCF60, Then pre-incubate ‘Incubation’ plates T60 and NCF60 for 10 min at 37° C. with constant shaking. Transfer 54 μL liver microsomes to blank plate, then add 6 μL NAPDH cofactor to blank plate, and then add 180 μL quenching solution to blank plate.
2.5.4 Add 5 μL compound working solution (100 μM) into ‘incubation’ plates (T60 and NCF60) containing microsomes and mix 3 times thoroughly.
For the NCF60 plate, add 50 μL of buffer and mix 3 times thoroughly. Start timing; plate will be incubated at 37° C. for 60 min while shaking.
For the T60 plate, mix 3 times thoroughly, and immediately remove 54 μL mixture for the 0-min time point to ‘Quenching’ plate. Then add 44 μL NAPDH cofactor to incubation plate (T60). Start timing; plate will be incubated at 37° C. for 60 min while shaking.
At 5, 10, 20, 30, and 60 min, add 180 μL quenching solution to ‘Quenching’ plates, mix once, and serially transfer 60 μL sample from T60 plate per time point to ‘Quenching’ plates.
For NCF60: mix once, and transfer 60 μL sample from the NCF60 incubation to ‘Quenching’ plate containing quenching solution at the 60-min time point.
All sampling plates are shaken for 10 min, then centrifuged at 4000 rpm for 20 minutes at 4° C.
Transfer 80 μL supernatant into 240 μL HPLC water, and mix by plate shaker for 10 min.
Each bioanalysis plate was sealed and shaken for 10 minutes prior to LC-MS/MS analysis.
The equation of first order kinetics was used to calculate T½ and Intrinsic clearance (CLint mic) in (L/min/mg).

[3] = test system: Collagen I (COL1A1) in LX-2 cells; experiment: Collagen and Alpha-SMA in LX-2 (Western blot after TGF-β stimulation); format: cell-based; conditions: Homo sapiens, 4 ng/ml TGF-β for 48 hours, Collagen I normalized to GAPDH;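 further: cells serum-starved in 0.4% FBS before treatment, lysates analysed by Western blot, DMSO-only wells as blank and TGF-β alone as maximal induction control, three independent experiments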
Description: 3 ml of 0.25% Trypsin-EDTA solution was then added and cells were incubated at 37° C. for 5 min for each T150-flask. 7 ml of culture medium was added to stop trypsinization. The cells were centrifuged at 300×g for 5 min. Supernatant medium was discarded and cells were re-suspended with fresh culture medium. The cells were counted with Cell viability analyzer. 5.0E+05 cells/well were seeded into 6-well plate containing 2.0 mL of culture medium. The cells were cultured overnight at 37° C. The next day, the complete medium was replaced with medium with 0.4% FBS for starvation. […] In parallel, medium containing only DMSO and TGF-β was used as blank control and positive control, respectively. TGF-β induction was used as maximum induction positive control. The culture medium was discarded at the end of induction. Cells were washed once using ice-cold DPBS. RIPA buffer was added to lyse the cells for 20 min. The cells were then scraped off the culture plate, collected in a tube and centrifuged. The supernatant was stored at −80° C. The total amount of protein in the lysate was determined using BCA Protein Assay kit. The cell treatment of fibrosis assay was performed in three independent experiments for each compound.
All the lysate samples were adjusted to the same protein concentration with RIPA buffer after BCA assay. […] The denatured samples were used for electrophoresis. Western blot was performed according to the standard protocols. The same volume of protein was loaded onto 4-12% Bis-Tris gel. Duplicate lysates of samples were loaded onto two gels. The gels were run for 0.5 h at 80 V and 120 V for another 1 h. When the electrophoresis was completed, the gels containing target protein Collagen I (COL1A1) were transferred onto NC membrane using Trans-Blot Electrophoretic Transfer Cell for 90 min at 100 V. The iBlot™ 2 Gel Transfer Device was used to transfer α-SMA and GAPDH at 20 V for 7 min. All the membranes were blocked in TBST buffer with 5% nonfat dry milk in at RT for 1 h and then incubated with primary antibody anti-COL1A1 and anti-α-SMA in TBST buffer containing 5% BSA at 4° C. overnight. For GAPDH detection, the membrane with α-SMA immunoblots were stripped with Restore™ Western Blot Stripping Buffer after detection. And the membranes were re-blocked and then re-probed with primary antibody anti-GAPDH antibody at room temperature (RT) for 2 h. After incubation with primary antibodies, membranes were washed with TBST, then incubated with the secondary antibody at RT for 1 h. Blots were visualized using the instrument Image Quant LAS-4000. The chemiluminescent signals derived from ECL Western blotting reagents were captured. The bands integrated intensity from 16-bit blot images was used for quantitation with the software (1D component of ImageQuant TL). The quantification raw data of the two duplicated gels was obtained from ImageQuant TL. Collagen I and α-SMA proteins expression level was normalized to GAPDH for each gel. The average normalization data of the two duplicated gels was calculated and applied to calculate IC50 using an equation for a sigmoidal dose response (variable slope) of GraphPad™ Prism software. The equation is Y=Bottom+(Top-Bottom)/(1+10^((Log IC50−X)*Hillslope). Note: X is the logarithm of compound concentration, Y is the average normalization data

[4] = molecular target: TNIK(h) (Homo sapiens (Human), UniProt Q9UKE5); experiment: TNIK Human STE Kinase Enzymatic Radiometric Assay; format: biochemical;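 further: remaining kinase activity relative to DMSO control, compound added without preincubation, reaction started with ATP, IC50 from variable-slope sigmoidal dose-response fit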
Sequence of TNIK(h) (Q9UKE5 whole entry): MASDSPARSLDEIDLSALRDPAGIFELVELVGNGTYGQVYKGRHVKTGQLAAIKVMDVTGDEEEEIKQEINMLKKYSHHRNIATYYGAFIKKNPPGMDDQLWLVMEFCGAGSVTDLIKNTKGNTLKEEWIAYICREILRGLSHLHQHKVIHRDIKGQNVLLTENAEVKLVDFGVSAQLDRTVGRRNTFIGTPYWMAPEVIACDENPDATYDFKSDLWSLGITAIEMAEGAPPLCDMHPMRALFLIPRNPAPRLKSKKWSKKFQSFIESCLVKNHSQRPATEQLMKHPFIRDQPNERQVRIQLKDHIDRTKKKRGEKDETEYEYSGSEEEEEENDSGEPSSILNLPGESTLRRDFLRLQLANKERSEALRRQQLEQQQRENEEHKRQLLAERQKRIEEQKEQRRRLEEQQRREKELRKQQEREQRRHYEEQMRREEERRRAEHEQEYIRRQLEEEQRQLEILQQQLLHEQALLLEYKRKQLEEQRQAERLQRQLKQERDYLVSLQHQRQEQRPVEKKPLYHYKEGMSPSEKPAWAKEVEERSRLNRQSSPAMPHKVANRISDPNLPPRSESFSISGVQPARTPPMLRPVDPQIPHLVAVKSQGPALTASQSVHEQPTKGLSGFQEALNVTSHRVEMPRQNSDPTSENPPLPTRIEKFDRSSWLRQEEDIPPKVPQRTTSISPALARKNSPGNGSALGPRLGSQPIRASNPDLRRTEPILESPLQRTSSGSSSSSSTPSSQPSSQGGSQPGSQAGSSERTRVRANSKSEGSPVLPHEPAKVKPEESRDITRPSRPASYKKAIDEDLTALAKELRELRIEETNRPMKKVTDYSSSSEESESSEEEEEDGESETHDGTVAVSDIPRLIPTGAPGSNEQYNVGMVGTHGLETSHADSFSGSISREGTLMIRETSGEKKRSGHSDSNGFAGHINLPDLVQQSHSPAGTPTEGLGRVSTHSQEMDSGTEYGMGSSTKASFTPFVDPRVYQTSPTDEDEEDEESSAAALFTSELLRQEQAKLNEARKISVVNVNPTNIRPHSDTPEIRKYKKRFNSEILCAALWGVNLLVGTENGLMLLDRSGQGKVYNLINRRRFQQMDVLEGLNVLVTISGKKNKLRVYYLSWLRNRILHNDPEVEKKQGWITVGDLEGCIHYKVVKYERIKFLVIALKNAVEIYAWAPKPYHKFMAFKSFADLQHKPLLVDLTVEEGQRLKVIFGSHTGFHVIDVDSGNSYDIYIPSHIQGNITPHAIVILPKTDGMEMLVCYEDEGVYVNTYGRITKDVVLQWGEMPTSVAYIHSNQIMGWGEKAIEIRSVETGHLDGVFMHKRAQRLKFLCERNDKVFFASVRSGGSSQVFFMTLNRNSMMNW
Description: as §1
INCUBATION: 40 min at Room temperature
COMPOUND DILUTION SCHEME: All compounds supplied were prepared to a working stock of 50× final assay concentration in 100% DMSO. Where appropriate, more concentrated stocks were diluted manually to 50× using 100% DMSO. Compounds supplied as powders were reconstituted to a 10 mM stock in 100% DMSO before further dilution to 50×. ASSAY PROCEDURE: The required volume of the 50× stock of test compound was added to the assay before a reaction mix containing the enzyme and substrate was added. The reaction was initiated by the addition of ATP at the selected concentration. There was no pre-incubation of the compound with the enzyme/substrate mix prior to ATP addition. […] Results are expressed as kinase activity remaining, as a percentage of the DMSO control. This is calculated using the following formula:
as §2

[5] = ATP 70 μM, 40 min at room temperature, read-out: TNIK (IC50)

Structure (SMILES) | IC50 [1] [µM] | Human Liver Microsome (μM/min/mg) [2] | IC50 [3] [µM] | IC50 [4, 5] [µM] | IC50 [4] [µM]
CN1CCN(c2ccc(NC(=O)c3c[nH]c(-c4c(-c5ccc(F)cc5)ncn4C(F)F)n3)cc2)CC1 [Compound 130, 3′-(difluoromethyl)-5′-(4-fluorophenyl)-N-(4-(4-methylpiperazin-1-yl)phenyl)-1H,3′H-[2,4′-biimidazole]-4-carboxamide] | > 0.12 | ++ (10-100 μM/min/mg as ++) | 0.0001 to 0.001 | 0.012 to 0.12 | 
CC(C)n1cnc(-c2ccc(Cl)cc2)c1-c1nc(C(=O)Nc2ccc(N3CCN(CCO)CC3)cc2)c[nH]1 [Compound 139, 5′-(4-chlorophenyl)-N-(4-(4-(2-hydroxyethyl)piperazin-1-yl)phenyl)-3′-isopropyl-1H,3′H-[2,4′-biimidazole]-4-carboxamide] | > 0.12 | ++ (10-100 μM/min/mg as ++) | 0.0001 to 0.001 | 0.012 to 0.12 | 
CC(C)n1cnc(-c2ccc(F)cc2)c1-c1ccc(C(=O)Nc2ccc(CCO)cc2)o1 [Compound 126, 5-(4-(4-fluorophenyl)-1-isopropyl-1H-imidazol-5-yl)-N-(4-(2-hydroxyethyl)phenyl)furan-2-carboxamide] | 0.012 to 0.12 | + (>100 μM/min/mg as +) | 0.0001 to 0.001 | 0.012 to 0.12 | 
CN1CCN(c2ccc(NC(=O)c3c[nH]c(-c4c(-c5ccc(F)cc5)ncn4CC(F)(F)F)n3)cc2)CC1 [Compound 120, 5′-(4-fluorophenyl)-N-(4-(4-methylpiperazin-1-yl)phenyl)-3′-(2,2,2-trifluoroethyl)-1H,3′H-[2,4′-biimidazole]-4-carboxamide] | > 0.12 | ++ (10-100 μM/min/mg as ++) | < 0.0001 | 0.012 to 0.12 | 
CC(C)n1cnc(-c2ccc(F)c(F)c2)c1-c1nc(C(=O)Nc2ccc(N3CCN(CCO)CC3)cc2)c[nH]1 [Compound 146, 5′-(3,4-difluorophenyl)-N-(4-(4-(2-hydroxyethyl)piperazin-1-yl)phenyl)-3′-isopropyl-1H,3′H-[2,4′-biimidazole]-4-carboxamide] | > 0.12 | ++ (10-100 μM/min/mg as ++) | 0.0001 to 0.001 | 0.012 to 0.12 | 
CC(C)n1cnc(-c2ccc(F)c(F)c2)c1-c1nc(C(=O)Nc2ccc(N3CCN(C)CC3)cc2)c[nH]1 [Compound 156, 5′-(3,4-difluorophenyl)-3′-isopropyl-N-(4-(4-methylpiperazin-1-yl)phenyl)-1H,3′H-[2,4′-biimidazole]-4-carboxamide] | > 0.12 | ++ (10-100 μM/min/mg as ++) | < 0.0001 |  | 0.012 to 0.12
CC(C)n1cnc(-c2ccc(F)cc2)c1-c1cccc(C(=O)Nc2ccc(N3CCN(C)CC3)cc2)n1 [Compound 127] | 0.001 to 0.012 | + (>100 μM/min/mg as +) | 0.0001 to 0.001 | 0.001 to 0.012 | 
O=C(Nc1ccc(N2CCNCC2)cc1)c1c[nH]c(-c2c(-c3ccc(F)cc3)ncn2CC(F)(F)F)n1 [Compound 167, 5′-(4-fluorophenyl)-N-(4-(piperazin-1-yl)phenyl)-3′-(2,2,2-trifluoroethyl)-1H,3′H-[2,4′-biimidazole]-4-carboxamide] | > 0.12 | ++ (10-100 μM/min/mg as ++) | < 0.0001 | 0.012 to 0.12 | 
CC(C)n1cnc(-c2ccc(F)cc2)c1-c1nc(C(=O)Nc2ccc(N3CCN(CCO)CC3)cc2)c[nH]1 [Compound 117, 5′-(4-fluorophenyl)-N-(4-(4-(2-hydroxyethyl)piperazin-1-yl)phenyl)-3′-isopropyl-1H,3′H-[2,4′-biimidazole]-4-carboxamide] | 0.012 to 0.12 | ++ (10-100 μM/min/mg as ++) | 0.0001 to 0.001 | 0.012 to 0.12 | 
CN1CCN(c2ccc(NC(=O)c3c[nH]c(-c4c(-c5ccc(F)cc5)ncn4[C@H]4CC[C@H](O)CC4)n3)cc2)CC1 [Compound 159, 5′-(4-fluorophenyl)-3′-((1r,4r)-4-hydroxycyclohexyl)-N-(4-(4-methylpiperazin-1-yl)phenyl)-1H,3′H-[2,4′-biimidazole]-4-carboxamide] | 0.012 to 0.12 | ++ (10-100 μM/min/mg as ++) | 0.0001 to 0.001 | 0.001 to 0.012 | 
CC(C)n1cnc(-c2ccc(F)cc2)c1-c1ccc(C(=O)Nc2ccc(N3CCN(C)CC3)cc2)o1 [Compound 121, 5-(4-(4-fluorophenyl)-1-isopropyl-1H-imidazol-5-yl)-N-(4-(4-methylpiperazin-1-yl)phenyl)furan-2-carboxamide] | 0.012 to 0.12 | + (>100 μM/min/mg as +) | < 0.0001 | 0.001 to 0.012 | 
CC(C)n1cnc(-c2ccc(F)cc2)c1-c1nc(C(=O)Nc2ccc(N(CCO)CCO)cc2)c[nH]1 [Compound 116, N-(4-(bis(2-hydroxyethyl)amino)phenyl)-5′-(4-fluorophenyl)-3′-isopropyl-1H,3′H-[2,4′-biimidazole]-4-carboxamide] | 0.012 to 0.12 | +++ (1-10 μM/min/mg as +++) | 0.0001 to 0.001 | 0.012 to 0.12 | 
CC(C)n1cnc(-c2ccc(F)cc2)c1-c1cccc(C(=O)Nc2ccc(N3CCN(CCO)CC3)cc2)n1 [Compound 128] | 0.001 to 0.012 | + (>100 μM/min/mg as +) | 0.0001 to 0.001 | 0.001 to 0.012 | 
CC(C)n1cnc(-c2ccc(F)cc2)c1-c1nc(C(=O)Nc2ccc(CCO)cc2)c[nH]1 [Compound 111, 5′-(4-fluorophenyl)-N-(4-(2-hydroxyethyl)phenyl)-3′-isopropyl-1H,3′H-[2,4′-biimidazole]-4-carboxamide] | > 0.12 | ++ (10-100 μM/min/mg as ++) | 0.0001 to 0.001 | 0.012 to 0.12 | 
CC(C)n1cnc(-c2ccc(F)cc2)c1-c1cccc(C(=O)Nc2ccc(CCC(=O)O)cc2)n1 [Compound 131] | 0.012 to 0.12 | +++ (1-10 μM/min/mg as +++) | 0.0001 to 0.001 | 0.001 to 0.012 | 
CN1CCN(c2ccc(NC(=O)c3c[nH]c(-c4c(-c5ccc(F)cc5)ncn4C4CCC(O)CC4)n3)cc2)CC1 (centres unmarked) [Compound 172] |  | +++ (1-10 μM/min/mg as +++) | < 0.0001 |  | 
CC(C)n1cnc(-c2ccc(F)cc2)c1-c1nc(C(=O)Nc2ccc(N3CCN(CC(F)(F)F)CC3)cc2)c[nH]1 [Compound 189, 5′-(4-fluorophenyl)-3′-isopropyl-N-(4-(4-(2,2,2-trifluoroethyl)piperazin-1-yl)phenyl)-1H,3′H-[2,4′-biimidazole]-4-carboxamide] | 0.012 to 0.12 |  | 0.0001 to 0.001 | 0.012 to 0.12 | 
